From US12358921B2, “Antiviral heterocyclic compounds” (priority 2022, dated 2025)

Tests used:
HRSV = settings: prophylactic use, high risk infants; cited from earlier work
hMPV A2 TN/94-49 [1] = assay: HMPV antiviral assay Method 1 (LLC-MK2 cells, ATP-Lite); assay type: cell-based; settings: hMPV A2 TN/94-49, LLC-MK2 cells
In short: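 LLC-MK2 cells infected in suspension with hMPV A2 TN/94-49 at MOI 0.005, 5,000 cells/well, in serum-free OptiMEM with 2 μg/mL TPCK-trypsin (final) and CaCl2; compounds in duplicate, 10 points, 2 μM top, 2.5-fold dilutions. After 7 days at 37 °C, cell health by ATP-Lite luminescence; EC50 by four-parameter fit.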

hMPV A2 TN/94-49 [2] = assay: HMPV antiviral assay Method 2 (LLC-MK2 cells with CP-100-356, ATP-Lite); assay type: cell-based; settings: hMPV A2 TN/94-49, LLC-MK2 cells, 4 μM CP-100-356, Method 2
In short: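 LLC-MK2 cells infected in suspension with hMPV A2 TN/94-49 at MOI 0.16, in serum-free OptiMEM with final 2 μg/mL TPCK-trypsin and 2 μM CP-100-356 (P-gp inhibitor). Compounds tested in duplicate, top 200 nM, 2.5-fold, 10 points; 7 days at 37 °C. ATP-Lite cell health normalised to controls; EC50 by four-parameter fit.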

[3] = tested on: HUMAN RSV-A (“LONG” STRAIN); assay: RSV-A assay (CPE, ATPlite) in Hep-2 cells; assay type: cell-based; settings: human respiratory syncytial virus, 120 h, MOI 0.1, 5-day incubation
In short: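 Hep-2 cells (8,000/well) given 2-fold serial compound dilutions in duplicate, then infected with RSV-A Long strain at MOI 0.1. After 5 days, virus-induced cytopathic effect quantified as cellular ATP by ATPlite luminescence, against virus-only and uninfected controls; EC50 reported in ranges.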

Question: Which “effective in reducing hospitalizations” value (HRSV) does the source give for Palivizumab here?
Answer: 60%

Question: For COc1cc(C(=O)NC[C@@](O)(c2ccccc2)c2cc3c(c(-c4ccc(F)c(Cl)c4Cl)n2)OC[C@]3(C)C(N)=O)cc2cn(C3(F)CC3)nc12 [Example 259], which EC50 (hMPV A2 TN/94-49 [1]) is on record?
Answer: < 0.5 µM

Question: What about the EC50 (hMPV A2 TN/94-49 [2]) of the same compound?
Answer: < 0.2 µM

Question: And the EC50 [3]?
Answer: < 0.2 µM

Question: Which results are given for COc1cc(C(=O)NC[C@](O)(c2cc3c(c(-c4ccc(F)c(Cl)c4Cl)n2)OC[C@]3(C)C(N)=O)C(F)(F)F)cc2cn(C(F)F)nc12 [Example 66]?
Answer: EC50 (hMPV A2 TN/94-49 [1]): < 0.5 µM; EC50 (hMPV A2 TN/94-49 [2]): < 0.2 µM; EC50 [3]: < 0.2 µM

Question: What does the source list for COc1cc(C(=O)NC[C@@](O)(c2cccc(F)c2)c2cc3c(c(-c4cc(C(F)(F)F)c(F)cc4F)n2)OC[C@]3(C)C(N)=O)cc2cn(C3CC3)nc12 [Example 295]?
Answer: EC50 (hMPV A2 TN/94-49 [1]): < 0.5 µM; EC50 (hMPV A2 TN/94-49 [2]): < 0.2 µM; EC50 [3]: < 0.2 µM

Question: For COc1cc(C(=O)NC[C@@](O)(c2ccccc2)c2cc3c(c(-c4cc(Cl)c(F)cc4F)n2)OC[C@]3(C)C(N)=O)cc2cn(C3(F)CC3)nc12 [Example 158], which EC50 (hMPV A2 TN/94-49 [1]) is on record?
Answer: < 0.5 µM

Question: And the EC50 (hMPV A2 TN/94-49 [2])?
Answer: < 0.2 µM

Question: And the EC50 [3]?
Answer: < 0.2 µM

Question: Which EC50 (hMPV A2 TN/94-49 [1]) does the source give for COc1cc(C(=O)NC[C@@](O)(c2ccc(F)cc2)c2cc3c(c(-c4cc(Cl)c(F)cc4F)n2)OC[C@]3(C)C(N)=O)cc2cn(C3CC3)nc12 [Example 12] here?
Answer: < 0.5 µM

Question: What about the EC50 (hMPV A2 TN/94-49 [2]) of the same compound?
Answer: < 0.2 µM

Question: What about the EC50 [3] of the same compound?
Answer: < 0.2 µM

Question: Which EC50 (hMPV A2 TN/94-49 [1]) does the source give for COc1cc(C(=O)NC[C@@](O)(c2ccccc2)c2cc3c(c(-c4ccc(F)c(Cl)c4Cl)n2)OC[C@]3(C)C(N)=O)cc2cc(C)nnc12 [Example 289] here?
Answer: < 0.5 µM

Question: And the EC50 (hMPV A2 TN/94-49 [2])?
Answer: < 0.2 µM

Question: And the EC50 [3]?
Answer: < 0.2 µM

Question: What does the source list for COc1cc(C(=O)NC[C@](O)(c2cc3c(c(-c4ccc(F)c(Cl)c4Cl)n2)OC[C@]3(C)C(N)=O)C(F)(F)F)cc2cn(C3CC3)nc12 [Example 65]?
Answer: EC50 (hMPV A2 TN/94-49 [1]): < 0.5 µM; EC50 (hMPV A2 TN/94-49 [2]): < 0.2 µM; EC50 [3]: < 0.2 µM

Question: What does the source list for COc1cc(C(=O)NC[C@@](O)(c2cccnc2)c2cc3c(c(-c4cc(Cl)c(F)cc4F)n2)OC[C@]3(C)C(N)=O)cc2cn(C3CC3)nc12 [Example 131]?
Answer: EC50 (hMPV A2 TN/94-49 [1]): < 0.5 µM; EC50 (hMPV A2 TN/94-49 [2]): < 0.2 µM; EC50 [3]: < 0.2 µM

Question: Which results are given for C[C@]1(C(N)=O)COc2c1cc([C@@](O)(CNC(=O)c1cc(OC3CC3)c3nc(C4CC4)sc3c1)C1CC1)nc2-c1cc(Cl)c(F)cc1F [Example 3]?
Answer: EC50 (hMPV A2 TN/94-49 [1]): < 0.5 µM; EC50 (hMPV A2 TN/94-49 [2]): < 0.2 µM; EC50 [3]: < 0.2 µM

Question: With COc1cc(C(=O)NC[C@@](O)(c2ccccc2)c2cc3c(c(-c4cc(F)c(F)cc4F)n2)OC[C@]3(C)C(N)=O)cc2cn(C(F)F)nc12 [Example 172] as the compound, how does the EC50 (hMPV A2 TN/94-49 [1]) read?
Answer: < 0.5 µM

Question: What about the EC50 (hMPV A2 TN/94-49 [2]) of the same compound?
Answer: < 0.2 µM

Question: And the EC50 [3]?
Answer: < 0.2 µM
